pEC50: −log10 of the molar value. Bridge positions count the residues as written; N and C are the ends. Square brackets hold non-standard residues; d marks the D form. Peptide text beside a SMILES is read from it. Hyp = O=C(O)[C@@H]1C[C@@H](O)CN1; Cit = NC(=O)NCCC[C@H](N)C(=O)O
Legend:
hAM1 receptor = hAM1 receptor (Homo sapiens, UniProt O60895+Q16602); assay: cAMP assay for in vitro receptor activation, hAM1-R; format: cell-based; details: cAMP assay, hAM1 receptor; read-out: hAM1R EC50
Outline: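 Receptor activation, read as cAMP, was assessed in thawed cells of a monoclonal hAM1-overexpressing stable line, plated at 8000 cells/well in DPBS supplemented with 0.05% casein and 0.5 mM IBMX.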

hAMY3 receptor = target: T1, hAMY3 receptor (Homo sapiens, UniProt O60896+P30988); assay: cAMP assay for in vitro receptor activation, hAMY3-R; format: cell-based; details: cAMP assay, hAMY3 receptor; read-out: hAMY3R EC50
T1 sequence (P30988 25-474): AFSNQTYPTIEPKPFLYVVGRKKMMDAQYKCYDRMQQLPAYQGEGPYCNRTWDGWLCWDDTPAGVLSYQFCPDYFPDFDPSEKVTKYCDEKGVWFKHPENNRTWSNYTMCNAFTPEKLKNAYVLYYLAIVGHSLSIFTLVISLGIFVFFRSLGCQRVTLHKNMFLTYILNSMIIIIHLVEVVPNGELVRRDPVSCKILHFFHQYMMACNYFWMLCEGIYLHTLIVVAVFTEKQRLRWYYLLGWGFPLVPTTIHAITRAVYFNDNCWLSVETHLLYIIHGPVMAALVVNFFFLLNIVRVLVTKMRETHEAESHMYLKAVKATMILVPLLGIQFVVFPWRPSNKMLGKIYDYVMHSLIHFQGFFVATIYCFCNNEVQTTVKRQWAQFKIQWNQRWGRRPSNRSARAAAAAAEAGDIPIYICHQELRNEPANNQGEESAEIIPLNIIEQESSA
T1 sequence (O60896 24-148 partner): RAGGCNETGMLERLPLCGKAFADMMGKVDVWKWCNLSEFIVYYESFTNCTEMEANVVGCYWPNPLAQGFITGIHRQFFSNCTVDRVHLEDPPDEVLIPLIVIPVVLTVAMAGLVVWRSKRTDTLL
Outline: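 Receptor activation was measured as cAMP accumulation in a monoclonal cell line stably overexpressing hAMY3. Stimulation with graded doses lasted 30 min at room temperature in the presence of 0.5 mM IBMX, with human amylin as positive control.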

[1] = Physical stability of peptide analogues (Thioflavin T fibrillation); format: physicochemical; details: maximum ThT signal normalized between hAMY maximum and buffer background; 40° C., shaking, four days; pH 7 per table title
Outline: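 ThT fluorescence (450 nm excitation, 480 nm emission; 4 μM dye) was read every 10 min over four days at 40° C under 700 rpm shaking stress, after 1 h in pH 4 acetate or pH 7 phosphate (50 mM). Peak smoothed signal expressed as percent, scaled between buffer background and hAMY maximum.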

Chain of hAM1 receptor (Q16602 23-461): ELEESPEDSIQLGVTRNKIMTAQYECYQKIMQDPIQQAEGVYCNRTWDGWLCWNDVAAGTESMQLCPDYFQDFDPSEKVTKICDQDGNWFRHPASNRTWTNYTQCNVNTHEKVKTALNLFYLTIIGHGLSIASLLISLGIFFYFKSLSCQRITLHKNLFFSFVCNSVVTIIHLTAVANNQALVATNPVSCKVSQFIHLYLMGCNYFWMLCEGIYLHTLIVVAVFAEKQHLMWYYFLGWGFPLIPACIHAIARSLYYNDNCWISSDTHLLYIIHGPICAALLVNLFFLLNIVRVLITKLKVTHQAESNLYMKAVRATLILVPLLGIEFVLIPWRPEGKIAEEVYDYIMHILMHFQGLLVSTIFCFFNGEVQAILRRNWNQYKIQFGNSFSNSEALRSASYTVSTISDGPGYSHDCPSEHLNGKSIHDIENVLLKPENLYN
Chain of hAM1 receptor (O60895 43-175 partner): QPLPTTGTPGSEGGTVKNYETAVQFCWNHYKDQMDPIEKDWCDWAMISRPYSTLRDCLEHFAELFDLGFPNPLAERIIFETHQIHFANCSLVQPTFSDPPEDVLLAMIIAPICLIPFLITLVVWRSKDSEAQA

With `CC[C@H](C)[C@H](NC(=O)[C@H](CCC(N)=O)NC(=O)[C@H](Cc1c[nH]cn1)NC(=O)[C@H](C)NC(=O)[C@H](CC(C)C)NC(=O)[C@H](CCCNC(N)=O)NC(=O)[C@H](CCC(N)=O)NC(=O)[C@@H](NC(=O)[C@@H](NC(=O)[C@@H]1CSSC[C@H](NC(=O)CN)C(=O)N[C@@H](CCCNC(=N)N)C(=O)N[C@@H]([C@@H](C)O)C(=O)NCC(=O)N[C@@H]([C@@H](C)O)C(=O)N1)[C@@H](C)O)C(C)C)C(=O)N[C@@H](Cc1ccc(O)cc1)C(=O)N[C@@H](CCC(N)=O)C(=O)N[C@@H](Cc1ccccc1)C(=O)N[C@H](C(=O)N[C@@H](CC(=O)O)C(=O)N[C@@H](CCCCN)C(=O)N[C@@H](CC(=O)O)C(=O)N[C@@H](CCCCN)C(=O)N[C@@H](CC(=O)O)C(=O)N[C@@H](CC(N)=O)C(=O)N[C@H](C(=O)N[C@@H](C)C(=O)N1CCC[C@H]1C(=O)N[C@@H](CCCNC(=N)N)C(=O)N[C@@H](CO)C(=O)N[C@@H](CCCCN)C(=O)N[C@H](C(=O)NCC(=O)N1CCC[C@H]1C(=O)N[C@@H](CC(N)=O)C(=O)NCC(=O)N1C[C@H](O)C[C@H]1C(N)=O)C(C)C)C(C)C)[C@@H](C)O` [compound 290] (H-GCRTGTCTVQ[Cit]LAHQIYQFTDKDKDNVAPRSKVGPNG[Hyp]-NH2; disulfide 2-7; N-terminus assumed) as the molecule, how does the pEC50 (hAM1 receptor) read?
Its pEC50 is less than 5.30.

What about the pEC50 (hAMY3 receptor) of the same molecule?
The pEC50 was 10.33.

And the “Max ThT signal (%)” value [1]?
The value was 17.300%.

With `CC[C@H](C)[C@H](NC(=O)[C@H](CCC(N)=O)NC(=O)[C@H](Cc1c[nH]cn1)NC(=O)[C@H](C)NC(=O)[C@H](CC(C)C)NC(=O)[C@H](CCCNC(N)=O)NC(=O)[C@H](CCC(N)=O)NC(=O)[C@@H](NC(=O)[C@@H](NC(=O)[C@@H]1CSSC[C@H](NC(=O)CN)C(=O)N[C@@H](CCCNC(=N)N)C(=O)N[C@@H](Cc2ccccc2)C(=O)NCC(=O)N[C@@H]([C@@H](C)O)C(=O)N1)[C@@H](C)O)C(C)C)C(=O)N[C@@H](Cc1ccc(O)cc1)C(=O)N[C@@H](CCC(N)=O)C(=O)N[C@@H](Cc1ccccc1)C(=O)N[C@H](C(=O)N[C@@H](CC(=O)O)C(=O)N[C@@H](CCCCN)C(=O)N[C@@H](CC(=O)O)C(=O)N[C@@H](CCCCN)C(=O)N[C@@H](CC(=O)O)C(=O)N[C@@H](CC(N)=O)C(=O)N[C@H](C(=O)N[C@@H](C)C(=O)N1CCC[C@H]1C(=O)N[C@@H](CCCNC(=N)N)C(=O)N[C@H](C(=O)N[C@@H](CC(N)=O)C(=O)N[C@H](C(=O)N[C@@H](CO)C(=O)N1CCC[C@H]1C(=O)N[C@@H](CCC(N)=O)C(=O)NCC(=O)N1C[C@H](O)C[C@H]1C(N)=O)[C@@H](C)CC)[C@@H](C)O)C(C)C)[C@@H](C)O` [compound 291] (H-GCRFGTCTVQ[Cit]LAHQIYQFTDKDKDNVAPRTNISPQG[Hyp]-NH2; disulfide 2-7) as the molecule, how does the pEC50 (hAM1 receptor) read?
Its pEC50 is less than 5.30.

And the pEC50 (hAMY3 receptor)?
Its pEC50 is 10.19.

And the “Max ThT signal (%)” value [1]?
Its value is 19.200%.

What does the source list for `CC[C@H](C)[C@H](NC(=O)[C@H](CCC(N)=O)NC(=O)[C@H](Cc1c[nH]cn1)NC(=O)[C@H](C)NC(=O)[C@H](CC(C)C)NC(=O)[C@H](CCCNC(N)=O)NC(=O)[C@H](CCC(N)=O)NC(=O)[C@@H](NC(=O)[C@@H](NC(=O)[C@@H]1CSSC[C@H](NC(=O)CN)C(=O)N[C@@H](CCCNC(=N)N)C(=O)N[C@@H](Cc2ccccc2)C(=O)NCC(=O)N[C@@H]([C@@H](C)O)C(=O)N1)[C@@H](C)O)C(C)C)C(=O)N[C@@H](Cc1ccc(O)cc1)C(=O)N[C@@H](CCC(N)=O)C(=O)N[C@@H](Cc1ccccc1)C(=O)N[C@H](C(=O)N[C@@H](CC(=O)O)C(=O)N[C@@H](CCCCN)C(=O)N[C@@H](CC(=O)O)C(=O)N[C@@H](CCCCN)C(=O)N[C@@H](CC(=O)O)C(=O)N[C@@H](CC(N)=O)C(=O)N[C@H](C(=O)N[C@@H](C)C(=O)N1CCC[C@H]1C(=O)N[C@@H](CCCNC(=N)N)C(=O)N[C@@H](CO)C(=O)N[C@@H](CC(N)=O)C(=O)N[C@H](C(=O)N[C@@H](CO)C(=O)N1CCC[C@H]1C(=O)N[C@@H](CCC(N)=O)C(=O)NCC(=O)N1C[C@H](O)C[C@H]1C(N)=O)C(C)C)C(C)C)[C@@H](C)O` [compound 293] (H-GCRFGTCTVQ[Cit]LAHQIYQFTDKDKDNVAPRSNVSPQG[Hyp]-NH2; disulfide 2-7; N-terminus assumed)?
pEC50 (hAM1 receptor): < 5.30; pEC50 (hAMY3 receptor): 10.20; Max ThT signal (%) [1]: 24.200%

With `CC[C@H](C)[C@H](NC(=O)[C@H](CCC(N)=O)NC(=O)[C@H](Cc1c[nH]cn1)NC(=O)[C@H](C)NC(=O)[C@H](CC(C)C)NC(=O)[C@H](CCCNC(N)=O)NC(=O)[C@H](CCC(N)=O)NC(=O)[C@@H](NC(=O)[C@@H](NC(=O)[C@@H]1CSSC[C@H](NC(=O)CN)C(=O)N[C@@H](CCCNC(=N)N)C(=O)N[C@@H](Cc2ccccc2)C(=O)NCC(=O)N[C@@H]([C@@H](C)O)C(=O)N1)[C@@H](C)O)C(C)C)C(=O)N[C@@H](Cc1ccc(O)cc1)C(=O)N[C@@H](CCC(N)=O)C(=O)N[C@@H](Cc1ccccc1)C(=O)N[C@H](C(=O)N[C@@H](CC(=O)O)C(=O)N[C@@H](CCCCN)C(=O)N[C@@H](CC(=O)O)C(=O)N[C@@H](CCCCN)C(=O)N[C@@H](CC(=O)O)C(=O)N[C@@H](CC(N)=O)C(=O)N[C@H](C(=O)N[C@@H](C)C(=O)N1CCC[C@H]1C(=O)N[C@@H](CCCNC(=N)N)C(=O)N[C@H](C(=O)N[C@@H](CCCCN)C(=O)N[C@H](C(=O)N[C@@H](CO)C(=O)N1CCC[C@H]1C(=O)N[C@@H](CCC(N)=O)C(=O)NCC(=O)N1C[C@H](O)C[C@H]1C(N)=O)[C@@H](C)CC)[C@@H](C)O)C(C)C)[C@@H](C)O` [compound 294] (H-GCRFGTCTVQ[Cit]LAHQIYQFTDKDKDNVAPRTKISPQG[Hyp]-NH2; disulfide 2-7) as the molecule, how does the pEC50 (hAM1 receptor) read?
Its pEC50 is less than 5.30.

And the pEC50 (hAMY3 receptor)?
The pEC50 was 10.35.

And the “Max ThT signal (%)” value [1]?
The value was 16.850%.

What does the source list for `CC[C@H](C)[C@H](NC(=O)[C@H](CC(N)=O)NC(=O)[C@H](CO)NC(=O)[C@H](CCCNC(=N)N)NC(=O)[C@@H]1CCCN1C(=O)[C@H](C)NC(=O)[C@@H](NC(=O)[C@H](CC(N)=O)NC(=O)[C@H](CC(=O)O)NC(=O)[C@H](CCCCN)NC(=O)[C@H](CC(=O)O)NC(=O)[C@H](CCCCN)NC(=O)[C@H](CC(=O)O)NC(=O)[C@@H](NC(=O)[C@H](Cc1ccccc1)NC(=O)[C@H](CCC(N)=O)NC(=O)[C@H](Cc1ccc(O)cc1)NC(=O)[C@@H](NC(=O)[C@H](CCC(N)=O)NC(=O)[C@H](Cc1c[nH]cn1)NC(=O)[C@H](C)NC(=O)[C@H](CC(C)C)NC(=O)[C@H](CCCNC(N)=O)NC(=O)[C@H](CCC(N)=O)NC(=O)[C@@H](NC(=O)[C@@H](NC(=O)[C@@H]1CSSC[C@H](NC(=O)CN)C(=O)N[C@@H](CCCNC(=N)N)C(=O)N[C@@H]([C@@H](C)O)C(=O)NCC(=O)N[C@@H]([C@@H](C)O)C(=O)N1)[C@@H](C)O)C(C)C)[C@@H](C)CC)[C@@H](C)O)C(C)C)C(=O)NCC(=O)N1CCC[C@H]1C(=O)N[C@@H](CC(N)=O)C(=O)NCC(=O)N1C[C@H](O)C[C@H]1C(N)=O` [compound 297] (H-GCRTGTCTVQ[Cit]LAHQIYQFTDKDKDNVAPRSNIGPNG[Hyp]-NH2; disulfide 2-7; N-terminus assumed)?
pEC50 (hAM1 receptor): < 5.30; pEC50 (hAMY3 receptor): 10.59; Max ThT signal (%) [1]: 27.500%

With `CC[C@H](C)[C@H](NC(=O)[C@H](CCC(N)=O)NC(=O)[C@H](Cc1c[nH]cn1)NC(=O)[C@H](C)NC(=O)[C@H](CC(C)C)NC(=O)[C@H](CCCNC(N)=O)NC(=O)[C@H](CCC(N)=O)NC(=O)[C@@H](NC(=O)[C@@H](NC(=O)[C@@H]1CSSC[C@H](NC(=O)CN)C(=O)N[C@@H](CCCNC(=N)N)C(=O)N[C@@H](Cc2ccccc2)C(=O)NCC(=O)N[C@@H]([C@@H](C)O)C(=O)N1)[C@@H](C)O)C(C)C)C(=O)N[C@@H](Cc1ccc(O)cc1)C(=O)N[C@@H](CCC(N)=O)C(=O)N[C@@H](Cc1ccccc1)C(=O)N[C@H](C(=O)N[C@@H](CC(=O)O)C(=O)N[C@@H](CCCCN)C(=O)N[C@@H](CC(=O)O)C(=O)N[C@@H](CCCCN)C(=O)N[C@@H](CC(=O)O)C(=O)N[C@@H](CC(N)=O)C(=O)N[C@H](C(=O)N[C@@H](C)C(=O)N1CCC[C@H]1C(=O)N[C@@H](CCCNC(=N)N)C(=O)N[C@@H](CO)C(=O)N[C@@H](CC(N)=O)C(=O)N[C@H](C(=O)N[C@@H](CO)C(=O)N1CCC[C@H]1C(=O)N[C@@H](CCC(N)=O)C(=O)NCC(=O)N1C[C@H](O)C[C@H]1C(N)=O)[C@@H](C)CC)C(C)C)[C@@H](C)O` [compound 300] (H-GCRFGTCTVQ[Cit]LAHQIYQFTDKDKDNVAPRSNISPQG[Hyp]-NH2; disulfide 2-7; N-terminus assumed) as the molecule, how does the pEC50 (hAM1 receptor) read?
Its pEC50 is less than 5.30.

And the pEC50 (hAMY3 receptor)?
Its pEC50 is 10.12.

What about the “Max ThT signal (%)” value [1] of the same molecule?
The value was 17.850%.
